{
  "source": "paper PMC7933434",
  "about": "“Entropy-driven binding of gut bacterial β-glucuronidase inhibitors ameliorates irinotecan-induced toxicity” (Communications Biology, 2021)",
  "key": {"[1]": {"target": "EcGUS (Escherichia coli GUS) (Escherichia coli, UniProt P05804)", "sequence (P05804 whole entry)": "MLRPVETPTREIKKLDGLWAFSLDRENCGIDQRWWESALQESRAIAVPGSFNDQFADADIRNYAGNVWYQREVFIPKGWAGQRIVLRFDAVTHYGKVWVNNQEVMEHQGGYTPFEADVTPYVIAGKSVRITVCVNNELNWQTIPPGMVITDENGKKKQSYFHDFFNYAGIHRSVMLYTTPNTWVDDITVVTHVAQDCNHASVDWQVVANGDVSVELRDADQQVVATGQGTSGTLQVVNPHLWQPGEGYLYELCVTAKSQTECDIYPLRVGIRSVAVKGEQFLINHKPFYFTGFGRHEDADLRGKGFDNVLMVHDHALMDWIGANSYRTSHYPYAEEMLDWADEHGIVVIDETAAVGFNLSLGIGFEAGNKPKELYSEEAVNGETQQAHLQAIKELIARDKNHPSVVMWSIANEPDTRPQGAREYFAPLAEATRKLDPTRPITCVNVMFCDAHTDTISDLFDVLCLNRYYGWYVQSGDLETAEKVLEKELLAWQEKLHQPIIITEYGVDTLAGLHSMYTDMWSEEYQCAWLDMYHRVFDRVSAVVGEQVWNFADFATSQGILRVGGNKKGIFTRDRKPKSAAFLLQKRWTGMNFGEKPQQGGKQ", "assay": "biochemical"}, "[2]": {"target": "LgGUS (Lactobacillus gasseri GUS) (Lactobacillus gasseri, UniProt Q9AHJ8)", "sequence (Q9AHJ8 1-598)": "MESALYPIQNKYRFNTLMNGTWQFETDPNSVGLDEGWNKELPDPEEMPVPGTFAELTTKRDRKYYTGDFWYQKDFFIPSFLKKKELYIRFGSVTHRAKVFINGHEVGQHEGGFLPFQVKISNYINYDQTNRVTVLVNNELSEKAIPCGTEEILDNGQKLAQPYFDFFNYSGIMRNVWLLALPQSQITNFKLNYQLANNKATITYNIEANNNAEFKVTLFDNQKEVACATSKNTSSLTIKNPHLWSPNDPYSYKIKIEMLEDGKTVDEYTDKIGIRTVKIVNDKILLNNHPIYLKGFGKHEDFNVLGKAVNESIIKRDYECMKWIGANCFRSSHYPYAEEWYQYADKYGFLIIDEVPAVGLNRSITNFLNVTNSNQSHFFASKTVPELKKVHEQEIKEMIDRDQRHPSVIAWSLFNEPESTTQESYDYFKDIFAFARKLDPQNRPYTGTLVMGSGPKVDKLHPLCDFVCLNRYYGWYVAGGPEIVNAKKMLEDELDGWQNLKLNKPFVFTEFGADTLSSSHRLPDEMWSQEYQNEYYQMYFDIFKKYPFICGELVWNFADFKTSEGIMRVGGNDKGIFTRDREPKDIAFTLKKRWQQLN", "assay": "GUS inhibition assay, hydrolysis of 4-methylumbelliferyl-β-glucuronide, LgGUS", "type": "biochemical", "design": "GUS activity (hydrolysis rate of MUG) / 1/v: unit not given here", "details": "for Ki: LgGUS"}, "[3]": {"target": "EcGUS (Escherichia coli, UniProt P05804)", "sequence (P05804 whole entry)": "as the sequence (P05804 whole entry) above", "assay": "Isothermal titration calorimetry, EcGUS", "type": "binding", "details": "EcGUS"}, "[4]": {"target": "T1, HsGUS (human GUS) (Homo sapiens, UniProt P08236)", "T1 construct": "HsGUS was prepared as described[37]; made in house", "T1 sequence (P08236 23-651)": "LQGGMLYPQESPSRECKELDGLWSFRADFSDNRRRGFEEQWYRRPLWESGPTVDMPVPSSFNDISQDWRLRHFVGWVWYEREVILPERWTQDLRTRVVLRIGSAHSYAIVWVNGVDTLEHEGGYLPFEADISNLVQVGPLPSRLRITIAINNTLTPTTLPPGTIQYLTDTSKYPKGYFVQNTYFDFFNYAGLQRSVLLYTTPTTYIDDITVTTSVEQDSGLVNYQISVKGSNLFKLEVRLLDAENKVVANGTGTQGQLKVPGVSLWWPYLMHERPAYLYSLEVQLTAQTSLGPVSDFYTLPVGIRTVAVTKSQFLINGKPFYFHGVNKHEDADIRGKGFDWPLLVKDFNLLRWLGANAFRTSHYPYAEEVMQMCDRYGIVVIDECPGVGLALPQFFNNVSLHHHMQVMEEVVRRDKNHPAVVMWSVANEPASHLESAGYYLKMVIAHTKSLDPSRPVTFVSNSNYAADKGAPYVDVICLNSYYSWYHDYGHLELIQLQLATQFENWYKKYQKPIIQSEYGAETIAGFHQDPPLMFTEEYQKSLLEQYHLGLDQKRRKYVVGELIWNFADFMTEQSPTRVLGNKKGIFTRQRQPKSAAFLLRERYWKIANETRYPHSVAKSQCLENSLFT", "assay": "GUS inhibition assay, hydrolysis of 4-methylumbelliferyl-β-glucuronide, HsGUS", "type": "biochemical", "design": "GUS activity (hydrolysis rate of MUG): unit not given here"}, "[5]": {"details": "[Inhibitor 4] = 0.1 μM, [MUG] 0.0375 mM"}, "[6]": {"details": "[Inhibitor 4] = 0.1 μM, [MUG] 0.05 mM"}, "[7]": {"details": "[Inhibitor 4] = 0.1 μM, [MUG] 0.075 mM"}, "[8]": {"details": "[Inhibitor 4] = 0.1 μM, [MUG] 0.15 mM"}, "[9]": {"details": "[Inhibitor 4] = 0.2 μM, [MUG] 0.0375 mM"}, "[10]": {"details": "[Inhibitor 4] = 0.2 μM, [MUG] 0.05 mM"}, "[11]": {"details": "[Inhibitor 4] = 0.2 μM, [MUG] 0.075 mM"}, "[12]": {"details": "[Inhibitor 4] = 0.2 μM, [MUG] 0.15 mM"}, "[13]": {"details": "[Inhibitor 4] = 0.4 μM, [MUG] 0.0375 mM"}, "[14]": {"details": "[Inhibitor 4] = 0.4 μM, [MUG] 0.05 mM"}, "[15]": {"details": "[Inhibitor 4] = 0.4 μM, [MUG] 0.075 mM"}, "[16]": {"details": "[Inhibitor 4] = 0.4 μM, [MUG] 0.15 mM"}, "[17]": {"details": "[Inhibitor 4] = 0.6 μM, [MUG] 0.0375 mM"}, "[18]": {"details": "[Inhibitor 4] = 0.6 μM, [MUG] 0.05 mM"}, "[19]": {"details": "[Inhibitor 4] = 0.6 μM, [MUG] 0.075 mM"}, "[20]": {"details": "[Inhibitor 4] = 0.6 μM, [MUG] 0.15 mM"}, "[21]": {"details": "phosphate buffer (250 mM NaCl, 20 mM KH2PO4, 100 mM Na2HPO4, pH 8.0), 298 K"}},
  "note": "“And” between values parts separate entries of the source, which are not always exact repeats. Equal entries are not always repeated. Where two headings read alike, the source gives them in different places.",
  "data": [
    {"smiles": "CCCCCCCCC[C@@H]1NC[C@@H](O)[C@H](O)[C@H]1C(=O)O", "note": "[Inhibitor 4, C6-nonyl UIFG]", "values": [
      {"measurement": "Ki", "setting": "[1]", "result": 4.5, "unit": "nM"},
      {"measurement": "Ki", "setting": "[1]; 50 mM HEPES pH 7.5, 37 °C", "result": "4.5 ± 0.7", "unit": "nM"},
      {"measurement": "Ki", "setting": "[2]", "result": 270, "unit": "nM"},
      {"measurement": "Ki", "setting": "[2]; 50 mM sodium acetate pH 4.5, 37 °C", "result": "270 ± 74", "unit": "nM"},
      {"measurement": "1/v", "setting": "[2]; [5]", "result": "0.07099 and 0.06547 and 0.07752"},
      {"measurement": "GUS activity (hydrolysis rate of MUG)", "setting": "[2]; [5]", "result": "17345 and 18805 and 15888"},
      {"measurement": "1/v", "setting": "[2]; [6]", "result": "0.08248 and 0.08036 and 0.08633"},
      {"measurement": "GUS activity (hydrolysis rate of MUG)", "setting": "[2]; [6]", "result": "14936 and 15328 and 14270"},
      {"measurement": "1/v", "setting": "[2]; [7]", "result": "0.1044 and 0.09961 and 0.1132"},
      {"measurement": "GUS activity (hydrolysis rate of MUG)", "setting": "[2]; [7]", "result": "11804 and 12374 and 10895"},
      {"measurement": "1/v", "setting": "[2]; [8]", "result": "0.1278 and 0.1207 and 0.1294"},
      {"measurement": "GUS activity (hydrolysis rate of MUG)", "setting": "[2]; [8]", "result": "9649 and 10216 and 9535"},
      {"measurement": "1/v", "setting": "[2]; [9]", "result": "0.05896 and 0.0562 and 0.06114"},
      {"measurement": "GUS activity (hydrolysis rate of MUG)", "setting": "[2]; [9]", "result": "20877 and 21902 and 20134"},
      {"measurement": "1/v", "setting": "[2]; [10]", "result": "0.07315 and 0.0639 and 0.07306"},
      {"measurement": "GUS activity (hydrolysis rate of MUG)", "setting": "[2]; [10]", "result": "16834 and 19266 and 16856"},
      {"measurement": "1/v", "setting": "[2]; [11]", "result": "0.08853 and 0.08384 and 0.0916"},
      {"measurement": "GUS activity (hydrolysis rate of MUG)", "setting": "[2]; [11]", "result": "13918 and 14693 and 13452"},
      {"measurement": "1/v", "setting": "[2]; [12]", "result": "0.113 and 0.1097 and 0.1193"},
      {"measurement": "GUS activity (hydrolysis rate of MUG)", "setting": "[2]; [12]", "result": "10909 and 11240 and 10335"},
      {"measurement": "1/v", "setting": "[2]; [13]", "result": "0.04482 and 0.03964 and 0.04854"},
      {"measurement": "GUS activity (hydrolysis rate of MUG)", "setting": "[2]; [13]", "result": "27452 and 31030 and 25348"},
      {"measurement": "1/v", "setting": "[2]; [14]", "result": "0.06247 and 0.0466 and 0.0623"},
      {"measurement": "GUS activity (hydrolysis rate of MUG)", "setting": "[2]; [14]", "result": "19707 and 26401 and 19760"},
      {"measurement": "1/v", "setting": "[2]; [15]", "result": "0.07433 and 0.06177 and 0.07489"},
      {"measurement": "GUS activity (hydrolysis rate of MUG)", "setting": "[2]; [15]", "result": "16569 and 19929 and 16445"},
      {"measurement": "1/v", "setting": "[2]; [16]", "result": "0.09796 and 0.08796 and 0.1041"},
      {"measurement": "GUS activity (hydrolysis rate of MUG)", "setting": "[2]; [16]", "result": "12581 and 14006 and 11837"},
      {"measurement": "1/v", "setting": "[2]; [17]", "result": "0.03481 and 0.03381 and 0.03972"},
      {"measurement": "GUS activity (hydrolysis rate of MUG)", "setting": "[2]; [17]", "result": "35328 and 36376 and 30969"},
      {"measurement": "1/v", "setting": "[2]; [18]", "result": "0.04379 and 0.03975 and 0.04826"},
      {"measurement": "GUS activity (hydrolysis rate of MUG)", "setting": "[2]; [18]", "result": "28094 and 30946 and 25494"},
      {"measurement": "1/v", "setting": "[2]; [19]", "result": "0.05918 and 0.05295 and 0.06497"},
      {"measurement": "GUS activity (hydrolysis rate of MUG)", "setting": "[2]; [19]", "result": "20799 and 23242 and 18949"},
      {"measurement": "1/v", "setting": "[2]; [20]", "result": "0.08688 and 0.08016 and 0.09205"},
      {"measurement": "GUS activity (hydrolysis rate of MUG)", "setting": "[2]; [20]", "result": "14180 and 15366 and 13387"},
      {"measurement": "ΔH", "setting": "[3]; Tris buffer (250 mM NaCl, 20 mM Tris, pH 8.0), 298 K", "result": "close to zero"},
      {"measurement": "ΔΔH relative to 2 (ΔΔH2–3, ΔΔH2–4)", "setting": "[3]; phosphate buffer", "result": "+0.99 kcal mol^−1"},
      {"measurement": "–TΔΔS relative to 2 (–TΔΔS2–3, –TΔΔS2–4)", "setting": "[3]; phosphate buffer", "result": -1.34, "unit": "kcal/mol"},
      {"measurement": "Kd", "setting": "[3]; [21]", "result": "160 ± 40", "unit": "nM"},
      {"measurement": "ΔG", "setting": "[3]; [21]", "result": "–9.30 ± 0.13 kcal/mol"},
      {"measurement": "ΔH", "setting": "[3]; [21]", "result": "–3.00 ± 0.02 kcal/mol"},
      {"measurement": "—TΔS", "setting": "[3]; [21]", "result": "–6.31 ± 0.15 kcal/mol"},
      {"measurement": "Ki", "setting": "[4]; HsGUS, 50 mM sodium acetate pH 4.5, 37 °C", "result": 105000, "unit": "nM"},
      {"measurement": "GUS activity (hydrolysis rate of MUG)", "setting": "[4]; [Inhibitor 4] =32 μM, [MUG] 0.1 mM", "result": "862.058 and 811.68"},
      {"measurement": "GUS activity (hydrolysis rate of MUG)", "setting": "[4]; [Inhibitor 4] =32 μM, [MUG] 0.2 mM", "result": "1454.23 and 1423.51"},
      {"measurement": "GUS activity (hydrolysis rate of MUG)", "setting": "[4]; [Inhibitor 4] =32 μM, [MUG] 0.4 mM", "result": "2392.78 and 2276.09"},
      {"measurement": "GUS activity (hydrolysis rate of MUG)", "setting": "[4]; [Inhibitor 4] =32 μM, [MUG] 0.6 mM", "result": "3009.56 and 2960.24"},
      {"measurement": "GUS activity (hydrolysis rate of MUG)", "setting": "[4]; [Inhibitor 4] =32 μM, [MUG] 0.8 mM", "result": "3491.23 and 3336.67"},
      {"measurement": "GUS activity (hydrolysis rate of MUG)", "setting": "[4]; [Inhibitor 4] =32 μM, [MUG] 1.2 mM", "result": "3870.44 and 4183.78"},
      {"measurement": "GUS activity (hydrolysis rate of MUG)", "setting": "[4]; [Inhibitor 4] =32 μM, [MUG] 1.6 mM", "result": "4158.21 and 4615.97"},
      {"measurement": "GUS activity (hydrolysis rate of MUG)", "setting": "[4]; [Inhibitor 4] =32 μM, [MUG] 2 mM", "result": "4779.14 and 4997.44"},
      {"measurement": "GUS activity (hydrolysis rate of MUG)", "setting": "[4]; [Inhibitor 4] =67 μM, [MUG] 0.1 mM", "result": "714.053 and 717.679"},
      {"measurement": "GUS activity (hydrolysis rate of MUG)", "setting": "[4]; [Inhibitor 4] =67 μM, [MUG] 0.2 mM", "result": "1251.96 and 1238.2"},
      {"measurement": "GUS activity (hydrolysis rate of MUG)", "setting": "[4]; [Inhibitor 4] =67 μM, [MUG] 0.4 mM", "result": "2074.49 and 2003.18"},
      {"measurement": "GUS activity (hydrolysis rate of MUG)", "setting": "[4]; [Inhibitor 4] =67 μM, [MUG] 0.6 mM", "result": "2680.12 and 2744.95"},
      {"measurement": "GUS activity (hydrolysis rate of MUG)", "setting": "[4]; [Inhibitor 4] =67 μM, [MUG] 0.8 mM", "result": "3069.97 and 3096.82"},
      {"measurement": "GUS activity (hydrolysis rate of MUG)", "setting": "[4]; [Inhibitor 4] =67 μM, [MUG] 1.2 mM", "result": "3696.42 and 3579.45"}
    ]}
  ]
}
